# Laboratory results reported in patent publication US20190060320A1, “MEDICAL USE OF PHARMACEUTICAL COMBINATION OR COMPOSITION” (Boehringer Ingelheim International GmbH, priority 2016, published 2019).
# Test: Multicentre, double-blind, placebo-controlled clinical trial of glycaemic and renal effects of linagliptin in patients with type 2 diabetes and albuminuria
# Format: in vivo, human
# Description: A multicentre, double-blind, placebo-controlled clinical trial investigates glycaemic and renal effects of linagliptin in patients with type 2 diabetes, album inuria and estimated GFR ≥30 ml/min/1.73 m2 (with or without renal function impairment).
# A total of 360 patients with type 2 diabetes (HbA1c 6.5-10%) and persistent albuminuria (urinary albumin-to-creatinine ratio [UACR] 30-3000 mg/gCr; i.e. micro- or macro-albuminuria) despite stable background (standard-of-care) of single renin-angiotensin system blockade (ARB or ACE inhibitor) are randomised to either linagliptin 5 mg (n=182) or placebo (n=178) for 24 weeks. Primary glycaemic and key secondary renal surrogate endpoints are HbA1c and UACR change from baseline over 24 weeks, respectively.
compound,measurement,setting,value
"CC#CCn1c(N2CCC[C@@H](N)C2)nc2c1c(=O)n(Cc1nc(C)c3ccccc3n1)c(=O)n2C [linagliptin, 1-[(4-methyl-quinazolin-2-yl)methyl]-3-methyl-7-(2-butyn-1-yl)-8-(3-(R)-amino-piperidin-1-yl)-xanthine]",placebo-adjusted gMean for time-weighted average of % change in UCAR from baseline,"over 24 weeks, linagliptin 5 mg vs placebo, 95% CI −15.0, 3.0, NS",−6.0%
same,gMean for time-weighted average of % change from baseline in UACR,"over 24 weeks, linagliptin 5 mg, 95% CI −16.8, −4.7",−11.0%
same,"difference in the changes from baseline vs. placebo in urinary albumin to creatinine ratio (UACR), subgroup on a background of metformin","post hoc exploratory subgroup analysis, linagliptin on metformin background (and CKD3, eGFR 30-60) compared to patients without metformin",numerically larger difference
same,placebo-adjusted mean HbA1c change from baseline,"week 24, linagliptin 5 mg vs placebo, 95% CI −0.78, −0.43, p<0.0001",−0.60%
